pIC50: −log10 of the molar value. Read-outs that look alike come from different tables or passages of the source.

The values below come from patent USRE50528E1, “Compounds and compositions for modulating EGFR mutant kinase activities” (Yuhan Corporation, priority 2014, dated 2025).

Assay [1] deals with PC9 (EGFR del E746-A750 mutant). Kind of assay: Cell viability assay, PC9.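 On all read-outs here: NSCLC PC9 cells, whose viability relies on EGFR del E746-A750, exposed to serially diluted compound for 72 h at 37 °C, ATPLite read-out, IC50, H2073 as EGFR wildtype line.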 Format: cell-based. The conditions noted are these: for Selectivity over wildtype, Wildtype vs mutant H2073/PC9 (fold): cellular potency ratio; for pIC50: cellular potency, 72-hour incubation, ATPLite, read-out: EGFR Mutants PC9. On the technique in general: ATP-based viability assays read luminescence as a measure of living cells.

The target of the next assay is T1, EGFR mutant T790M (Homo sapiens, UniProt P00533, T790M).
T1 construct: truncated human JAK3, EGFR mutants such as del E746-A750; purchased Carna Biosciences
Description: Kinase inhibition assay, EGFR mutant T790M.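 Further: truncated human EGFR mutant enzyme preincubated two hours with compound, then ATP plus ULight-PolyGT peptide for one hour, Europium-labeled antibody LANCE detection, IC50.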 The conditions noted are these: biochemical potency.

The subject of assay [2] is H1975 (EGFR L858R/T790M mutant). Description: Cell viability assay, H1975.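 On all read-outs here: NSCLC cells whose survival relies on EGFR L858R/T790M, exposed 72 h to serially diluted compound, ATP-based viability readout, with the H2073 line (wildtype EGFR dependent) as wildtype comparator.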 The assay is classed as cell-based. The conditions noted are these: for pIC50: cellular potency, 72-hour incubation, ATPLite, read-out: EGFR Mutants H1975; for Selectivity over wildtype, Wildtype vs mutant H2073/H1975 (fold): cellular potency ratio.
Assay [3] concerns the target T2, EGFR mutant Del19 (E746-A750) (Homo sapiens, UniProt P00533, DEL746-750).
T2 construct: truncated human JAK3, EGFR mutants such as del E746-A750; purchased Carna Biosciences
Kind of assay: Kinase inhibition assay, EGFR del E746-A750.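 Further: truncated human EGFR mutant kinase, two-hour preincubation with compound, then one-hour reaction with ATP and ULight-PolyGT peptide, LANCE Europium-antibody phosphorylation readout, IC50.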 Format: biochemical. The conditions noted are these: read-out: EGFR mutants Del19 (E746-A750).

The target of the next assay is T3, SYK (Homo sapiens, UniProt P43405).
T3 construct: Purified human, full-length SYK, KDR; purchased Carna Biosciences
Description: Kinase inhibition assay, SYK.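 Further: purified full-length human SYK pre-incubated 30 min with compound, then ULight-TK peptide phosphorylation for 1 h, detected with Europium-labeled antibody in Lance buffer.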 The assay is classed as biochemical. The conditions noted are these: biochemical potency.

For the next assay, the system named is H2073 (EGFR wildtype). Description: Cell viability assay, H2073.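 Further: NSCLC cell line whose survival relies on wildtype EGFR, treated with serially diluted compound, cytotoxic effect judged from remaining cell viability.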 The assay is classed as cell-based. The conditions noted are these: cellular potency, 72-hour incubation, ATPLite.
The next assay addresses T4, EGFR mutant L858R/T790M (Homo sapiens, UniProt P00533, L858R/T790M).
T4 construct: truncated human JAK3, EGFR mutants such as del E746-A750; purchased Carna Biosciences
Kind of assay: Kinase inhibition assay, EGFR L858R/T790M.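 Further: truncated human enzyme preincubated two hours with compound, then one hour with one millimolar ATP and ULight-PolyGT peptide, Europium-labeled antibody detection, IC50.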 The assay is classed as biochemical. The conditions noted are these: read-out: EGFR mutants L858R/T790M.

Another assay concerns the target T5, EGFR mutant L858R (Homo sapiens, UniProt P00533, L858R).
T5 construct: truncated human JAK3, EGFR mutants such as del E746-A750; purchased Carna Biosciences
Kind of assay: Kinase inhibition assay, EGFR L858R.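 Further: truncated human EGFR L858R kinase with compound preincubation, ULight-PolyGT peptide phosphorylation read by Europium-antibody Lance detection, IC50.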 The assay is classed as biochemical. The conditions noted are these: read-out: EGFR mutants L858R.

The next assay has as its target T6, EGFR mutant Del19/T790M (Homo sapiens, UniProt P00533, DEL746-750/T790M).
T6 construct: truncated human JAK3, EGFR mutants such as del E746-A750; purchased Carna Biosciences
Description: Kinase inhibition assay, EGFR del E746-A750/T790M. The assay is classed as biochemical. The conditions noted are these: read-out: EGFR mutants Del19/T790M.

Consider `C=CC(=O)Nc1cc(Nc2nccc(-n3cc(CN(C)CC)c(-c4ccccc4)n3)n2)c(OC)cc1N1CCOCC1` [Compound 92, N-(5-(4-(4-((ethyl(methyl)amino)methyl)-3-phenyl-1H-pyrazol-1-yl)pyrimidin-2-ylamino)-4-methoxy-2-morpholinophenyl)acrylamide], for which the “Selectivity over wildtype, Wildtype vs mutant H2073/PC9 (fold)” value (shortened to “Selectivity … vs mutant H2073/PC9 (fold)”) in [1] is listed as over 200 fold. In addition, the pIC50 in [1] is over 7.70; at EGFR mutant T790M, over 7.70; in assay [2] (Homo sapiens, NCI-H1975) it was over 7.70; in assay [3], over 7.70; at SYK, under 6.00; with H2073 (EGFR wildtype) (NCI-H2073), under 6.00. The pIC50 at EGFR mutant L858R/T790M, on EGFR mutant L858R and on EGFR mutant Del19/T790M was over 7.70 in each case. Moreover, in assay [2], the “Selectivity over wildtype, Wildtype vs mutant H2073/H1975 (fold)” value (“Selectivity … vs mutant H2073/H1975 (fold)” for short) is given as over 200 fold.

Turning to `Cc1cc(Nc2nccc(-n3cc(CN4CC[C@@H](O)C4)c(C)n3)n2)cc(C)c1OCCN1CCCC1` [Compound 148, (R)-1-((1-(2-(3,5-dimethyl-4-(2-(pyrrolidin-1-yl)ethoxy)phenylamino)pyrimidin-4-yl)-3-methyl-1H-pyrazol-4-yl)methyl)pyrrolidin-3-ol, reference compound], the “Selectivity … vs mutant H2073/PC9 (fold)” value in assay [1] was under 20 fold. Besides, the pIC50 in [1] is under 6.00; at EGFR mutant T790M, under 6.00; in assay [2] (Homo sapiens, NCI-H1975) it was under 6.00; in assay [3], under 6.00; against SYK it was 6.00 to 6.70; with H2073 (EGFR wildtype) (NCI-H2073), under 6.00. The pIC50 at EGFR mutant L858R/T790M is 6.00 to 6.70; on EGFR mutant L858R, under 6.00; at EGFR mutant Del19/T790M it was 6.00 to 6.70. Further, the “Selectivity … vs mutant H2073/H1975 (fold)” value in [2] is on record as under 20 fold.

With `CCC(=O)Nc1cc(Nc2nccc(-n3cc(CN(C)C)c(-c4ccccc4)n3)n2)c(OC)cc1N1CCOCC1` [Compound 157, N-(5-(4-(4-((dimethylamino)methyl)-3-phenyl-1H-pyrazol-1-yl)pyrimidin-2-ylamino)-4-methoxy-2-morpholinophenyl)propionamide, reference compound], in assay [1], the “Selectivity … vs mutant H2073/PC9 (fold)” value was under 20 fold. In addition, the pIC50 in assay [1] was under 6.00; at EGFR mutant T790M, under 6.00; in assay [2] (Homo sapiens, NCI-H1975), under 6.00; in [3], under 6.00; on SYK, under 6.00; in the assay on H2073 (EGFR wildtype) (NCI-H2073) it was under 6.00. The pIC50 on EGFR mutant L858R/T790M, on EGFR mutant L858R and on EGFR mutant Del19/T790M was under 6.00 throughout. For the same compound, in assay [2], the “Selectivity … vs mutant H2073/H1975 (fold)” value was under 20 fold.

Consider `CCC(=O)Nc1cc(Nc2nccc(-n3cc(CN4CCC4)c(-c4ccccc4)n3)n2)c(OC)cc1N1CCOCC1` [Compound 158, N-(5-(4-(4-(azetidin-1-ylmethyl)-3-phenyl-1H-pyrazol-1-yl)pyrimidin-2-ylamino)-4-methoxy-2-morpholinophenyl)propionamide, reference compound], for which the “Selectivity … vs mutant H2073/PC9 (fold)” value in [1] was under 20 fold. Moreover, the pIC50 in assay [1] was 6.70 to 7.70; at EGFR mutant T790M, under 6.00; in assay [2] (Homo sapiens, NCI-H1975), 6.00 to 6.70; in assay [3], under 6.00; against SYK, under 6.00; in the assay on H2073 (EGFR wildtype) (NCI-H2073), under 6.00. In addition, the pIC50 at EGFR mutant L858R/T790M, on EGFR mutant L858R and on EGFR mutant Del19/T790M was under 6.00 throughout. Moreover, in [2], the “Selectivity … vs mutant H2073/H1975 (fold)” value is given as under 20 fold.

Consider `C=CC(=O)Nc1cc(Nc2nccc(-n3cc(CN4CCC4)c(-c4cccs4)n3)n2)c(OC)cc1N1CCOCC1` [Compound 118, N-(5-(4-(4-(azetidin-1-ylmethyl)-3-(thiophen-2-yl)-1H-pyrazol-1-yl)pyrimidin-2-ylamino)-4-methoxy-2-morpholinophenyl)acrylamide], for which, in [1], the “Selectivity … vs mutant H2073/PC9 (fold)” value is listed as 20-200 fold. The pIC50 in [1] was over 7.70; against EGFR mutant T790M, over 7.70; in assay [2] (Homo sapiens, NCI-H1975), over 7.70; in assay [3], over 7.70; on SYK it was 6.70 to 7.70; in the assay on H2073 (EGFR wildtype) (NCI-H2073), 6.00 to 6.70. Besides, the pIC50 on EGFR mutant L858R/T790M, at EGFR mutant L858R and on EGFR mutant Del19/T790M was over 7.70 throughout. The “Selectivity … vs mutant H2073/H1975 (fold)” value in assay [2] is reported as 20-200 fold.

Consider `C=C(F)C(=O)Nc1cc(Nc2nccc(-n3cc(CN4CCC4)c(-c4ccccc4)n3)n2)c(OC)cc1N1CCOCC1` [Compound 159, N-(5-(4-(4-(azetidin-1-ylmethyl)-3-phenyl-1H-pyrazol-1-yl)pyrimidin-2-ylamino)-4-methoxy-2-morpholinophenyl)-2-fluoroacrylamide, reference compound], for which the “Selectivity … vs mutant H2073/PC9 (fold)” value in assay [1] was under 20 fold. Moreover, the pIC50 in [1] is under 6.00; at EGFR mutant T790M it was under 6.00; in assay [2] (Homo sapiens, NCI-H1975) it was under 6.00; in assay [3], under 6.00; against SYK, under 6.00; in the assay with H2073 (EGFR wildtype) (NCI-H2073), under 6.00. In addition, the pIC50 on EGFR mutant L858R/T790M is 6.70 to 7.70; at EGFR mutant L858R it was under 6.00; on EGFR mutant Del19/T790M, 6.70 to 7.70. Further, the “Selectivity … vs mutant H2073/H1975 (fold)” value in assay [2] is recorded as under 20 fold.

As to “4-(3-((dimethylamino)methyl)-4-methyl-1H-pyrrol-1-yl)-N-(3,5-dimethylphenyl)pyrimidin-2-amine [Compound 146, reference compound]”, in assay [1], the “Selectivity … vs mutant H2073/PC9 (fold)” value is reported as under 20 fold. Besides, the pIC50 in assay [1] is under 6.00; against EGFR mutant T790M it was under 6.00; in assay [2] it was under 6.00; in assay [3] (biochemical potency, 1 mM ATP), under 6.00; at SYK, 6.70 to 7.70; in the assay with H2073 (EGFR wildtype), under 6.00. The pIC50 is 6.00 to 6.70 on EGFR mutant L858R/T790M (biochemical potency, 1 mM ATP); under 6.00 at EGFR mutant L858R (biochemical potency, 1 mM ATP); 6.00 to 6.70 at EGFR mutant Del19/T790M (biochemical potency, 1 mM ATP). Moreover, the “Selectivity … vs mutant H2073/H1975 (fold)” value in assay [2] was under 20 fold.

Turning to `C=CC(=O)Nc1cc(Nc2nccc(-n3cc(CN(C)C)c(C(C)(C)C)n3)n2)c(OC)cc1N1CCOCC1` [Compound 86, N-(5-(4-(3-tert-butyl-4-((dimethylamino)methyl)-1H-pyrazol-1-yl)pyrimidin-2-ylamino)-4-methoxy-2-morpholinophenyl)acrylamide], the “Selectivity … vs mutant H2073/PC9 (fold)” value in assay [1] is 20-200 fold. Besides, the pIC50 was over 7.70 in assay [1]; 6.70 to 7.70 against EGFR mutant T790M; over 7.70 in [2] (Homo sapiens, NCI-H1975); over 7.70 in assay [3]; under 6.00 on SYK; 6.00 to 6.70 with H2073 (EGFR wildtype) (NCI-H2073). The pIC50 at EGFR mutant L858R/T790M, at EGFR mutant L858R and on EGFR mutant Del19/T790M was over 7.70 each time. Moreover, the “Selectivity … vs mutant H2073/H1975 (fold)” value in assay [2] is given as 20-200 fold.

For `C=CC(=O)Nc1cc(Nc2nccc(-n3cc(CN(C)C)c(C4CC4)n3)n2)c(OC)cc1N(C)CCOC` [Compound 106, N-(5-(4-(3-cyclopropyl-4-((dimethylamino)methyl)-1H-pyrazol-1-yl)pyrimidin-2-ylamino)-4-methoxy-2-((2-methoxyethyl)(methyl)amino)phenyl)acrylamide], the “Selectivity … vs mutant H2073/PC9 (fold)” value in [1] was 101-200 fold. In addition, the pIC50 in assay [1] was 6.70 to 7.70; against EGFR mutant T790M it was over 7.70; in assay [2] (Homo sapiens, NCI-H1975) it was 6.70 to 7.70; in assay [3], over 7.70; at SYK it was 6.70 to 7.70; in the assay with H2073 (EGFR wildtype) (NCI-H2073), under 6.00. The pIC50 at EGFR mutant L858R/T790M, at EGFR mutant L858R and at EGFR mutant Del19/T790M was over 7.70 throughout. For the same compound, in assay [2], the “Selectivity … vs mutant H2073/H1975 (fold)” value is given as 101-200 fold.

In the case of `C=CC(=O)Nc1cc(Nc2nccc(-n3cc(CN(C)C)c(-c4ccccc4)n3)n2)c(OC)cc1N1CCC1` [Compound 84, N-(2-(azetidin-1-yl)-5-(4-(4-((dimethylamino)methyl)-3-phenyl-1H-pyrazol-1-yl)pyrimidin-2-ylamino)-4-methoxyphenyl)acrylamide], in assay [1], the “Selectivity … vs mutant H2073/PC9 (fold)” value is reported as under 20 fold. Also, the pIC50 in assay [1] is over 7.70; against EGFR mutant T790M, over 7.70; in [2] (Homo sapiens, NCI-H1975) it was over 7.70; in [3], over 7.70; against SYK, under 6.00; in the assay with H2073 (EGFR wildtype) (NCI-H2073), 6.70 to 7.70. Further, the pIC50 on EGFR mutant L858R/T790M, at EGFR mutant L858R and at EGFR mutant Del19/T790M was over 7.70 each time. Further, the “Selectivity … vs mutant H2073/H1975 (fold)” value in assay [2] is under 20 fold.
